In US5149707A, “1-((2-fluorophenyl)(4-fluorophenyl)phenylmethyl)-1H-imidazole useful as antifungal agent” (J. Uriach & Cia, S.A., priority 1988, dated 1992):
≈ marks a conversion by molar mass, not a printed value.

Columns and labels:
Assay type in all cases: cell-based
[1] = test system: Aspergillus fumigatus (2); test: In vitro antifungal activity (MIC), agar dilution
Method: (§1) The antifungal activity of 1-[(2-fluorophenyl)(4-fluorophenyl)phenylmethyl]-1H-imidazole was shown by its ability to inhibit the growth of different species of yeast and filamentous fungi in vitro. The activity was recorded as the MIC value, that is, the minimum amount of product needed to achieve the complete inhibition of the in vitro growth of the test organism. Testing was performed as follows: a solution of the antifungal agent in ethanol was diluted with DST agar (pH 6.5) or Emmon's Sabouraud dextrose agar to obtain concentrations between 10 and 0.01 mcg/ml, or 80 and 0.16 mcg/m, respectively. The inoculum was standarized in order 1×10^5 cfu/ml, and 10 mcl of each organism was seeded into the agar surface. Incubation was then allowed at 30° C. during 3 days (DST) or 2 days (Emmon's) for yeasts and 10 days for filamentous fungi. Following incubation, the zones of inhibition were measured and compared to an inoculated, drug-free control to yield the MIC value.

[2] = test system: Aspergillus niger; test: In vitro antifungal activity (MIC), agar dilution
Method: as §1

[3] = test system: C. albicans serotipo B; test: In vitro antifungal activity (MIC), agar dilution; details: Candida albicans
Method: as §1

[4] = test system: C. guilliermondii (clinica); test: In vitro antifungal activity (MIC), agar dilution; details: Meyerozyma guilliermondii
Method: as §1

[5] = test system: C. guilliermondii SQ 2210; test: In vitro antifungal activity (MIC), agar dilution; details: Meyerozyma guilliermondii
Method: as §1

[6] = test system: C. parapsilosis (clinica); test: In vitro antifungal activity (MIC), agar dilution; details: Lodderomyces parapsilosis
Method: as §1

[7] = test system: Microsporum audouini ATCC 9079; test: In vitro antifungal activity (MIC), agar dilution
Method: as §1

[8] = test system: Microsporum gypseum (-); test: In vitro antifungal activity (MIC), agar dilution; details: Nannizzia gypsea
Method: as §1

[9] = test system: Rhodotorula rubra; test: In vitro antifungal activity (MIC), agar dilution
Method: as §1

[10] = test system: S. cerevisiae ATCC 9763; test: In vitro antifungal activity (MIC), agar dilution; details: Saccharomyces cerevisiae
Method: as §1

[11] = test system: T. glabrata (clinica); test: In vitro antifungal activity (MIC), agar dilution; details: Nakaseomyces glabratus
Method: as §1

[12] = test system: T. mentagrophytes (clinica) (1); test: In vitro antifungal activity (MIC), agar dilution; details: Trichophyton mentagrophytes
Method: as §1

[13] = test system: T. mentagrophytes (clinica) (3); test: In vitro antifungal activity (MIC), agar dilution; details: Trichophyton mentagrophytes
Method: as §1

[14] = test system: T. mentagrophytes (clinica) (4); test: In vitro antifungal activity (MIC), agar dilution; details: Trichophyton mentagrophytes
Method: as §1

[15] = test system: T. mentagrophytes (clinica) (5); test: In vitro antifungal activity (MIC), agar dilution; details: Trichophyton mentagrophytes
Method: as §1

[16] = test system: T. mentagrophytes ATCC 9129; test: In vitro antifungal activity (MIC), agar dilution
Method: as §1

[17] = test system: C. albicans; test: MIC distribution, serial dilutions in Sabouraud gentamycin broth, microplates; details: # of strains = 50
Method: (§2) The antifungal activity of 1-[(2-fluorophenyl)(4-fluorophenyl)phenylmethyl]-1H-imidazole and bifonazole was determined by serial dilutions in Sabouraud gentamycin broth using microplates. The antifungal agent was diluted in 50% ethanol to obtain concentrations between 40 and 0.015 mcg/ml. Inoculum was 10^7 cfu/ml for yeast and 10^6 cfu/ml for dermatophytes. Incubation was allowed at 37° C. during 2 days for yeasts, and at 29° C. during 7 days for dermatophytes. MIC's were determined as in example 18. The MIC distributions obtained in 9 organisms are shown in the next tables.

[18] = test system: C. guilliermondii; test: as above; details: MIC column 40 (first); # of strains = 5
Method: as §2

[19] = test system: C. krusei; test: as above; details: # of strains = 5
Method: as §2

[20] = test system: C. parapsilosis; test: as above; details: # of strains 10 = UR-4056/14 = Bifonazole
Method: as §2

[21] = test system: C. tropicalis; test: as above; details: # of strains = 30
Method: as §2

[22] = test system: M. canis; test: as above; details: # of strains = 13
Method: as §2

[23] = test system: T. glabrata; test: as above; details: # of strains = 10 = UR-4056/15 Bifonzaole
Method: as §2

[24] = test system: T. mentagrohytes; test: as above; details: # of strains = 17
Method: as §2

[25] = test system: T. rubrum; test: as above; details: # of strains = 6
Method: as §2

[26] = Emmon's Sabouraud dextrose agar

SMILES: c1ccc(-c2ccc(C(c3ccccc3)n3ccnc3)cc2)cc1 (centres unmarked) [Bifonazole, 1-[(4-biphenyl)-phenylmethyl]-1H-imidazole, reference compound]
- MIC ([1]; DST agar): 1 µg/mL (≈ 3.22 µM)
- MIC [1, 26]: 1.25 µg/mL (≈ 4.03 µM)
- MIC ([2]; DST agar): 0.1 µg/mL (≈ 0.322 µM)
- MIC [2, 26]: 2.5 µg/mL (≈ 8.05 µM)
- MIC ([3]; DST agar): 10 µg/mL (≈ 32.2 µM)
- MIC [3, 26]: 20 µg/mL (≈ 64.4 µM)
- MIC [4, 26]: 40 µg/mL (≈ 129 µM)
- MIC ([4]; DST agar): 10 µg/mL (≈ 32.2 µM)
- MIC ([5]; SQ2210, DST agar): 10 µg/mL (≈ 32.2 µM)
- MIC ([5]; SQ2210, Emmon's Sabouraud dextrose agar): 5 µg/mL (≈ 16.1 µM)
- MIC ([6]; DST agar): 10 µg/mL (≈ 32.2 µM)
- MIC [6, 26]: 20 µg/mL (≈ 64.4 µM)
- MIC ([7]; ATCC9079, DST agar): 0.05 µg/mL (≈ 0.161 µM)
- MIC ([7]; ATCC9079, Emmon's Sabouraud dextrose agar): 5 µg/mL (≈ 16.1 µM)
- MIC ([8]; DST agar): 2.5 µg/mL (≈ 8.05 µM)
- MIC [8, 26]: 5 µg/mL (≈ 16.1 µM)
- MIC ([9]; DST agar): 0.05 µg/mL (≈ 0.161 µM)
- MIC [9, 26]: 0.04 µg/mL (≈ 0.129 µM)
- MIC ([10]; ATCC9763, DST agar): 0.25 µg/mL (≈ 0.805 µM)
- MIC ([10]; ATCC9763, Emmon's Sabouraud dextrose agar): 0.63 µg/mL (≈ 2.03 µM)
- MIC ([11]; DST agar): 0.05 µg/mL (≈ 0.161 µM)
- MIC [11, 26]: 0.16 µg/mL (≈ 0.515 µM)
- MIC ([12]; DST agar): 0.5 µg/mL (≈ 1.61 µM)
- MIC [12, 26]: 5 µg/mL (≈ 16.1 µM)
- MIC ([13]; DST agar): 1 µg/mL (≈ 3.22 µM)
- MIC [13, 26]: 5 µg/mL (≈ 16.1 µM)
- MIC ([14]; DST agar): 0.5 µg/mL (≈ 1.61 µM)
- MIC [14, 26]: 5 µg/mL (≈ 16.1 µM)
- MIC ([15]; DST agar): 1 µg/mL (≈ 3.22 µM)
- MIC [15, 26]: 5 µg/mL (≈ 16.1 µM)
- MIC [16, 26]: 2.50 µg/mL (≈ 8.05 µM)
- MIC ([16]; Trichophyton mentagrophytes, ATCC9129): 2.5 µg/mL (≈ 8.05 µM)
- MIC Distribution (number of strains) ([17]; MIC 2.5): 6 # of strains
- MIC Distribution (number of strains) ([17]; MIC 5.0): 28 # of strains
- MIC Distribution (number of strains) ([17]; MIC column 10): 11 # of strains
- MIC Distribution (number of strains) ([17]; MIC column 20): 1 # of strains
- MIC Distribution (number of strains) ([17]; MIC column 40 (first)): 4 # of strains
- MIC Distribution (number of strains) [18]: 5 # of strains
- MIC Distribution (number of strains) ([19]; MIC 2.5): 1 # of strains
- MIC Distribution (number of strains) ([19]; MIC column 10): 1 # of strains
- MIC Distribution (number of strains) ([19]; MIC column 40 (first)): 3 # of strains
- MIC Distribution (number of strains) ([20]; MIC 0.6): 1 # of strains
- MIC Distribution (number of strains) ([20]; MIC 5.0): 1 # of strains
- MIC Distribution (number of strains) ([20]; MIC column 10): 2 # of strains
- MIC Distribution (number of strains) ([20]; MIC column 40 (first)): 10 # of strains
- MIC Distribution (number of strains) ([21]; MIC 5.0): 2 # of strains
- MIC Distribution (number of strains) ([21]; MIC column 10): 1 # of strains
- MIC Distribution (number of strains) ([21]; MIC column 40 (first)): 27 # of strains
- MIC Distribution (number of strains) ([22]; MIC 0.038): 1 # of strains
- MIC Distribution (number of strains) ([22]; MIC 2.5): 4 # of strains
- MIC Distribution (number of strains) ([22]; MIC 5.0): 5 # of strains
- MIC Distribution (number of strains) ([22]; MIC column 0.078): 1 # of strains
- MIC Distribution (number of strains) ([22]; MIC column 1.2): 2 # of strains
- MIC Distribution (number of strains) ([23]; MIC 0.15): 1 # of strains
- MIC Distribution (number of strains) ([23]; MIC 0.6): 1 # of strains
- MIC Distribution (number of strains) ([23]; MIC 2.5): 3 # of strains
- MIC Distribution (number of strains) ([23]; MIC 5.0): 5 # of strains
- MIC Distribution (number of strains) ([23]; MIC column 10): 3 # of strains
- MIC Distribution (number of strains) ([23]; MIC column 40 (first)): 2 # of strains
- MIC Distribution (number of strains) ([24]; MIC 0.038): 1 # of strains
- MIC Distribution (number of strains) ([24]; MIC 0.6): 1 # of strains
- MIC Distribution (number of strains) ([24]; MIC 2.5): 5 # of strains
- MIC Distribution (number of strains) ([24]; MIC column 1.2): 10 # of strains
- MIC Distribution (number of strains) ([25]; MIC 0.038): 2 # of strains
- MIC Distribution (number of strains) ([25]; MIC 0.3): 1 # of strains
- MIC Distribution (number of strains) ([25]; MIC 0.6): 1 # of strains
- MIC Distribution (number of strains) ([25]; MIC 5.0): 1 # of strains
- MIC Distribution (number of strains) ([25]; MIC column 1.2): 1 # of strains
